Experimental data from US20110263539A1, “SHIP 1 MODULATOR COMPOUNDS” (THE UNIVERSITY OF BRITISH COLUMBIA, priority 2006, published 2011).
Blank lines part the entries; values can stand above or below the compound they belong to.

How the values were obtained:
[1] = system: J774.1 macrophage cells; test: TNFα production in J774.1 macrophages (Example 9); type: cell-based; settings: 2 ng/mL LPS
Protocol: J774.1 macrophage cells were plated at 2×10^5 cells/well in 24 well plates. The next day the media was changed and Compound 100, Compound 103 or cyclodextrin carrier were added to the wells at the indicated concentrations for 30 min prior to stimulation of the cells with 2 ng/mL lipopolysaccharide (LPS). LPS activation of macrophages leads to production of TNF alpha which can be detected in the culture supernatant and quantified by ELISA. The results are depicted in a graph in FIG. 1.

[2] = system: J774.1a macrophage cells; test: Macrophage TNF-α NO assay (Assay 3); type: cell-based; settings: 10 μg/ml test compound, LPS, 24 hr, Griess reagent; note: key: a ‘+’ indicates a positive result for desired activity; a ‘−’ indicates a negative result for desired activity
Protocol: Assay 3) Macrophage TNF-α NO assay. J774.1a macrophage cells were treated with 10 μg/ml of test compound dissolved in solvent for 40 minutes prior to the addition of LPS. Culture supernatants were collected after 24 hr. for determination of NO concentration using the Griess reagent.

[3] = system: J774.1a macrophage cells; test: Macrophage TNF-α production (Assay 2); type: cell-based; settings: 10 μg/mL test compound, 100 ng/mL LPS, ELISA; note: key: a ‘+’ indicates a positive result for desired activity; a ‘−’ indicates a negative result for desired activity
Protocol: Assay 2) Macrophage TNF-α production. J774.1a macrophage cells were treated with 10 μg/mL of test compound dissolved in solvent (e.g. cyclodextran) for 40 minutes prior to the addition of 100 ng/mL LPS. Culture supernatants were collected after 2 hr and 5 hr for TNF-α determination by ELISA.

[4] = system: Mast cells; test: Stimulation of mast cells by FcεRI crosslinking (Assay 4); type: cell-based; settings: anti-DNP IgE, DNP-HSA
Protocol: Assay 4) Stimulation of mast cells by FcåRI crosslinking. Mast cells were pre-loaded overnight in BMMC medium lacking IL-3 with 0.1 μg/ml anti-DNP IgE (SPE-7, Sigma, Oakville, Ont). For calcium flux measurements, cells were incubated with 2 μM fura 2-acetoxymethyl ester (Molecular Probes, Eugene, Oreg.) in Tyrode's buffer at 23° C. for 45 min. Cells were then washed and incubated in the presence of the test compound 30 min prior to stimulation with the indicated concentration of DNP-human serum albumin (DNP-HSA). Calcium influx was monitored by spectrofluorometry as described previously. For analysis of intracellular signaling, cells were pre-loaded with anti-DNP IgE as above, pre-treated with the test compound for 30 min at 37° C. and stimulated with 20 ng/ml DNP-HSA for 5 min. Total cell lysates were then prepared and analyzed for phospho-PKB, phospho-p38^MAPK, phospho-MAPK, Grb-2 (Cell Signalling, Mississauga, Ont) and SHIP^6 by immunoblot analysis.

[5] = system: Bone marrow derived mast cells; test: Calcium influx in mast cells (Example 11); type: cell-based; settings: anti IgE antibody, Fura-2
Excerpt: The activation of mast cells by IgE receptor crosslinking leads to an influx of calcium into the cells, followed by degranulation and secretion of pro-inflammatory mediator. Bone marrow derived mast cells were loaded with the fluorescent calcium indicator dye Fura-2 prior to treatment for 1 hr with Compound 106 or PBS carrier. Cells were then stimulated or not with an anti IgE antibody to cross-link the IgE receptors. Calcium influx was then monitored by fluorimetry. The results are depicted in a graph in FIG. 3.

[6] = system: SHIP−/− bone marrow derived macrophages; test: LPS stimulation of SHIP−/− bone marrow derived macrophages; type: cell-based, mice; settings: SHIP−/− cells, 15 μM, 10 ng/mL LPS 2 h
Protocol: (§1) Bone marrow cells were aspirated from 4 to 8 week old C57B16×129Sv mixed background mice and SHIP and SHIP cells prepared as described previously. Bone marrow derived macrophages from SHIP^+/+ and SHIP^−/− mice were obtained and maintained in IMDM supplemented with 10% FCS, 150 μM MTG, 2% C127 cell conditioned medium as a source of macrophage colony stimulating factor (M-CSF) (macrophage medium)
LPS stimulation of macrophages. For the analysis of LPS-stimulated TNFα production, 2×10^5 cells were plated the night before in 24 well plates in macrophage medium. The next day, the medium was changed and AQX-016A or carrier was added to cells at the indicated concentrations for 30 min prior to the addition of 10 ng/mL LPS. Supernatants were collected for TNFα determination by ELISA (BD Biosciences, Mississauga, ON, Canada). For analysis of intracellular signaling, 2×10^6 cells were plated the night before in 6 cm tissue culture plates. The next day, the cells were cultured in macrophage medium without M-CSF for 1 hr at 37° C. and then pretreated with AQX-016A or carrier for 30 min prior to the addition of 10 ng/mL LPS for 15 min. Cells were washed with 4° C. […]
The target specificity and biological efficacy of AQX-016A were assessed by comparing AQX-016A's effects on PI3K-regulated processes in primary SHIP^+/+ vs SHIP^−/− macrophages and mast cells. […]

[7] = system: SHIP+/+ bone marrow derived macrophages; test: LPS stimulation of SHIP+/+ bone marrow derived macrophages; type: cell-based, mice; settings: SHIP+/+ cells, 15 μM, 10 ng/mL LPS 2 h
Protocol: as §1
LPS stimulation of macrophages. For the analysis of LPS-stimulated TNFα production, 2×10^5 cells were plated the night before in 24 well plates in macrophage medium. The next day, the medium was changed and AQX-016A or carrier was added to cells at the indicated concentrations for 30 min prior to the addition of 10 ng/mL LPS. Supernatants were collected for TNFα determination by ELISA (BD Biosciences, Mississauga, ON, Canada). For analysis of intracellular signaling, 2×10^6 cells were plated the night before in 6 cm tissue culture plates. The next day, the cells were cultured in macrophage medium without M-CSF for 1 hr at 37° C. and then pretreated with AQX-016A or carrier for 30 min prior to the addition of 10 ng/mL LPS for 15 min. Cells were washed with 4° C. PBS and resuspended in lysis buffer (50 mM Hepes, 2 mM EDTA, 1 mM NaVO4, 100 mM NaF, 50 mM NaPPi and 1% NP40) supplemented with Complete Protease Inhibitor Cocktail (Roche, Montreal, Canada). Lysates were rocked at 4° C. for 30 min and clarified by centrifuging 20 min at 12000×g. Lysates were then made 1× in Laemmli's buffer, boiled 2 min and loaded onto 7.5% SDS polyacrylamide […]. Immunoblot analysis for phospho PKB (Cell Signalling, Mississauga, Ont), SHIP and actin (Santa Cruz, Santa Cruz, Calif.) were carried out as described previously.
The target specificity and biological efficacy of AQX-016A were assessed by comparing AQX-016A's effects on PI3K-regulated processes in primary SHIP^+/+ vs SHIP^−/− macrophages and mast cells. […] LPS stimulation of macrophages is associated with a PIP3-dependent release of pro-inflammatory mediators such as TNFα. […]

[8] = system: ΔC2 SHIP; test: SHIP enzyme assay with C2 domain deleted SHIP; type: biochemical; settings: PI-3,4-P2 20 μM or Compound 100 3 μM, 30 μM IP4
Excerpt: A His6 tagged SHIP ΔC2 domain deletion mutant (deleting residues 725 to 863) in the mammalian expression vector pME18S was generated by a standard PCR-based methodology. An N-terminal His6 C2 domain construct was also generated by PCR inserted into the pET28C bacterial expression vector using EcoRI and NdeI restriction sites.
The allosteric regulation of enzymes has remained under-appreciated primarily because allosteric effectors are not easy to find. The molecular mechanism by which Compound 100 activated SHIP was investigated, first by performing classical enzyme kinetic analysis of its phosphatase activity. Activity measurements were performed with substrate concentrations from 10-100 μM.
The SHIP protein contains a C2 domain located at the carboxyterminal end of its phosphatase domain. […] SHIP lacking its the C2 domain (ΔC2 SHIP) was prepared.

[9] = system: SHIP enzyme; test: In vitro SHIP enzyme assay (Assay 1); type: biochemical; settings: wild-type SHIP
Protocol: Assay 1) In vitro testing in a SHIP enzyme assay. Test compounds were dissolved in a suitable solvent (e.g. EtOH, DMSO and others) and diluted into aqueous buffer (20 mM Tris HCl, pH 7.5 and 10 mM MgCl2). SHIP enzyme assays were performed in 96-well microtitre plates with 10 ng of enzyme/well in a total volume of 25 μL of 20 mM Tris HCl, pH 7.5 and 10 mM MgCl2. SHIP enzyme was incubated with test extracts (provided in solvent) or vehicle for 15 min at 23° C. before the addition of 100 μM inositol-1,3,4,5-tetrakisphosphate (Echelon Biosciences Inc, Salt Lake City, Utah). After 20 min at 37° C. and the amount of inorganic phosphate released assessed by the addition of Malachite Green reagent and absorbance measurement at 650 nm.
For in vitro testing in the SHIP enzyme assay, AQX-016A and Compound 100 were dissolved in EtOH and diluted into aqueous buffer (20 mM Tris HCl, pH 7.5 and 10 mM MgCl2). The actual concentration of drug in solution was determined by optical density measurement at 280 nm (λmax for both compounds) after high speed centrifugation at 14 000×g for 30 min to remove precipitated drug. For testing on cells, compounds were formulated in the carrier cyclodextrin (Cyclodex Technologies, High Springs, Fla.) at 6 mM (2 mg/mL). For oral administration to animals, compounds were dissolved in 100% cremophore EL (Sigma-Aldrich Canada, Oakville, Ontario) at 150 mM (50 mg/mL) prior to dilution to 6 mM in phosphate buffer saline. However, while these compounds caged in cyclodextrin or formulated in cremophore EL micelles were very soluble in aqueous solution, they could not be used in the SHIP enzyme assays because of interference from both cyclodextrin and cremophore EL.
N-terminal His6 tagged SHIP enzyme was expressed in mammalian 293T cells by transient transfection with pME18S-His-SHIP plasmid and purified to >95% homogeneity by Ni-chelating bead chromatography (Qiagen, Mississauga, Ontario). Recombinant SHIP C2 domain (amino acid residues 725 to 863) was expressed in E. coli transformed with a pET28C expression vector constructed as described below. Recombinant protein purified from the cell lysates by Nichelating bead chromatography was >95% pure.
In vitro SHIP enzyme assay. SHIP enzyme assays were performed in 96-well microtitre plates with 10 ng of enzyme/well in a total volume of 25 μL of 20 mM Tris HCl, pH 7.5 and 10 Mm MgCl2. SHIP enzyme was incubated with test extracts (provided in DMSO) or vehicle for 15 min at 23° C. before the addition of 100 μM inositol-1,3,4,5-tetrakisphosphate (Echelon Biosciences Inc, Salt Lake City, Utah). After 20 min at 37° C. and the amount of inorganic phosphate released assessed by the addition of Malachite Green reagent and absorbance measurement at 650 nm. SHIP2 enzyme was purchased from Echelon Biosciences (Salt Lake City, Utah) and an equivalent amount of inositol phosphatase activity was used in the in vitro enzyme assay. Enzyme data are expressed as the mean of triplicates +/−SEM. Experiments were performed at least 3 times. (FIGS. 7A and 7B).

SMILES: Cc1cc(OC(=O)CN)cc2c1[C@]1(C)CCC3C(C)(C)CCC[C@]3(C)[C@H]1C2 (some centres unmarked) [Compound 103]
inhibition of TNFα production [1]: Inhibits TNF Alpha Production Better than Compound 100
Assay Number 3: Macrophage NO [2]: +
Assay Number 2: Macrophage TNF-α production [3]: +

SMILES: Cc1cc(OC(=O)C(N)CCCCN)cc2c1[C@]1(C)CCC3C(C)(C)CCC[C@]3(C)[C@H]1C2 (some centres unmarked) [Compound 106]
Assay Number 4: Stimulation of mast cells by FcεRI crosslinking [4]: +
Assay Number 3: Macrophage NO [2]: +
Assay Number 2: Macrophage TNF-α production [3]: +
inhibition of calcium influx [5]: Inhibits Calcium Influx in Mast Cells

SMILES: O=c1cc(N2CCOCC2)oc2c(-c3ccccc3)cccc12 [LY294002, reference compound]
suppression of TNFα production [6]: up to −40%
suppression of TNFα production [7]: up to −40%

ΔC2 SHIP enzyme activity [8]: could not be enhanced
SMILES: CCCCCCCCCCCCCCCC(=O)OC[C@H](COP(=O)(O)O[C@H]1[C@H](O)[C@@H](O)[C@H](OP(=O)(O)O)[C@@H](OP(=O)(O)O)[C@H]1O)OC(=O)CCCCCCCCCCCCCCC [PI-3,4-P2, phosphatidylinositol-3,4-bisphosphate diC16, reference compound]
SHIP enzyme activity [9]: activated wild-type SHIP enzyme to a similar extent as Compound 100
